From patent US9199028B2, “Use of entrained neutrophils to treat metastatic and micrometastatic disease in at risk patients” (MEMORIAL SLOAN-KETTERING CANCER CENTER, priority 2010, dated 2015)
Entries after “also recorded” stand apart in the source; their conditions may differ.

What was measured:
[1] = TGFbeta inhibitor, Tocris; cited from earlier work
[2] = system: 4T1 tumour-bearing mice; assay: In vivo administration of Apocynin, spontaneous metastasis assay; parameters: species or system mouse; settings: Apocynin 2.4 g/liter in drinking water from 24 hours after orthotopic 4T1 injection, vs control
From the text: 4T1, B16-F10, and Lewis Lung Carcinoma (LLC) murine tumour cell lines as well as the human MCF7 and MDA-MB-231 mammary tumour cell lines were purchased from the ATCC. The human 4175 (LM2) cell line was described in Minn, et al., Nature 436:518-524 (2005), herein incorporated by reference). CCL2 and CCL5 knockdown 4T1 cells were generated by lentiviral transduction with CCL2 and CCL5 specific shRNAs from the SKI shRNA lentiviral collection. 4T1, MCF7 and 4175 were orthotopically injected into the mammary fat pad. B16-F10 and LLC cells were injected intradermally. Spontaneous Metastasis Assay 4T1 cells were transduced with pLVX based lentiviral particles encoding for firefly luciferase. Balb/C or nude female mice were orthotopically injected with 5×10^6 luciferase labelled cells. Metastatic progression was monitored using IVIS200 imaging system to measure lung specific luciferase activity starting on day 3 post tumour engraftment. Analysis of metastases size distribution and number was done histologically. Tissue Injury Female FVB mice were anesthetized and shaved at the wounding site. An area of skin (4 mm in diameter) area of skin was surgically removed from the dorsal region. […]
Mice were orthotopically injected with 5×10^6 luciferase labelled 4T1 cells. […] Formation of lung metastases was monitored using the IVIS-200 optical in vivo imaging system. […]

[3] = system: 4T1 cells; assay: In vitro killing assay: TENs co-cultured with 4T1 cells in the presence of inhibitors or TGF-β; assay type: cell-based, mouse; settings: TENs + 4T1 cells overnight; Apocynin 100 μM, Catalase 1,000 u/ml, Superoxide Dismutase 1,000 u/ml, Taurine 50 mM
From the text: Antibodies used for immunohistochemistry—MMP9, F4/80 and CCR2 (all from AbCam), Myeloperoxidase (Dako), Ly-6G and Cd11b (both from BD), and Cleaved Caspase 3 (Cell signalling). Antibodies used for western blotting—Actin (Sigma), CCL2 (AbCam) and CCL5 (R&D) p-SMAD2 (cell signalling). Antibodies used for FACS analysis FITC-Ly-6G, FITC-Cd11b, FITC-F4/80, FITC-Cd34 and FITC-c-Kit (all from BD) and VEGFR1-AP (R&D). Neutrophil Depletion Neutrophil depletion was achieved using daily IP injections of 12.5 μg Rat anti-Gr-1 antibody (BD) or Rat anti-Ly-6G antibody (BD) starting on day 3 post tumour engraftment. Starting on day 14, neutrophil depleting antibodies were administered twice daily. Control mice were injected with […] Rat isotype control (BD). Neutrophil depletion was monitored by manual blood differentials and FACS analysis. Flow Cytometry Peripheral blood was collected into EDTA-coated tubes, washed and resuspended in FACS buffer solution (PBS, 2% heat-inactivated FCS, 5 mM EDTA, and 0.02% sodium azide). The samples were blocked with […] and then incubated with fluorophore-conjugated antibodies. Erythrocytes were then lysed with FACS lysing solution (BD Biosciences) and the cell suspensions were analyzed on a FACSCalibur (BD Biosciences). Colony Formation Assay Female nude mice were orthotopically injected with 5×10^6 puromicin resistant 4T1 cells. On days 7 and 14 post tumour engraftment the mice were sacrificed and perfused with PBS. The lungs and livers were removed, washed with PBS and dissociated with Collagenase A (Roche). The single cell suspension was then plated onto puromicin containing media and selected for 14 day. Colonies were stained with Methylene-Blue and counted manually. Mouse Neutrophil Purification Whole blood was collected by cardiac puncture using heparinized (Sigma) syringe. The blood was diluted with 5 volumes of PBS containing 0.5% BSA and subjected to a discontinuous Histopaque (Sigma) gradient (1.077 and 1.119). Neutrophils were collected from the 1.077-1.119 interface, lymphocytes and monocytes collected from the plasma-1.077 interface. RBCs were eliminated by hypotonic lysis. The cells were washed twice with PBS-BSA and re-suspended in OptiMEM (Invitrogen) 0.5% FBS in a final concentration of 2×10^6 cells/ml. Neutrophil purity and viability were determined visually and were consistently >98%. Human Neutrophil Purification As part of a Memorial Sloan-Kettering Cancer Center institutionally approved protocol, blood samples (˜10 cc) were collected from healthy volunteers or from patients who were already having blood drawn for pre-surgical testing. Patients were consented accordingly as part of the approved protocol. […] Patients had either mastectomies or lumpectomies planned and had blood drawn prior to definitive surgical removal of their primary tumor or chemotherapy. Blood samples were transferred to the lab for analysis no more than 1 hour post-blood draw. Heparinzed blood (20 U/ml final) was mixed with an equal volume of Dextran 500 (3% in saline) and incubated 30 minutes at room temperature. The leukocyte-rich supernatant was layered on top of histopaque 1077 (Sigma) and centrifuged. Neutrophils, collected in the pellet fraction, were resuspended in 10 ml 0.2% NaCl for 30 seconds to remove contaminating erythrocytes. Isotonicity was restored by the addition of 10 ml 1.6% NaCl. Neutrophils were than washed three times in Hanks's balanced salt solution and resuspended in RPMI+FCS2%. In vitro Killing Assay Luciferase labelled cells (5,000/well) were plated on a 96-well, flat bottom white polystyrene tissue culture plate in OptiMEM 0.5% FBS (mouse neutrophils) or RPMI 2% FBS (human neutrophils). 4 hours later, purified neutrophils (100,000/well for mouse neutrophils and 5000 for human neutrophils) were added to the plated tumour cells and co-cultured overnight. […]

Compound	IC50 [1] [nM]	spontaneous lung metastasis (lung specific luciferase activity) [2]	neutrophil (TEN) mediated tumour-cell killing in the presence of inhibitor [3]
NC(=O)c1ccc(-c2nc(-c3ccc4c(c3)OCO4)c(-c3ccccn3)[nH]2)cc1 [SB431542]	94		
COc1cc(C(C)=O)ccc1O [Apocynin]		enhanced; also recorded: enhances metastasis	completely inhibits the neutrophil mediated tumour-cell killing
